In publication PMC6017874, “Synthesis of New C- and N-β-D-Glucopyranosyl Derivatives of Imidazole, 1,2,3-Triazole and Tetrazole, and Their Evaluation as Inhibitors of Glycogen Phosphorylase” (Molecules : A Journal of Synthetic Chemistry and Natural …, 2018):
Read-outs that look alike come from different tables or passages of the source.

What was measured:
[1] = target: T1, rabbit muscle glycogen phosphorylase b (RMGPb) (Oryctolagus cuniculus, UniProt P00489); experiment: Inhibition of rabbit muscle glycogen phosphorylase b (enzyme kinetic assay); type: biochemical; parameters: key to Inhibition: N.I.: no inhibition at 625 μM concentration; details: for Inhibition: N.I. = no inhibition at 625 μM concentration; for inhibition of RMGPb (in words): investigated concentration range, max 625 μM
T1 sequence (P00489 1-843): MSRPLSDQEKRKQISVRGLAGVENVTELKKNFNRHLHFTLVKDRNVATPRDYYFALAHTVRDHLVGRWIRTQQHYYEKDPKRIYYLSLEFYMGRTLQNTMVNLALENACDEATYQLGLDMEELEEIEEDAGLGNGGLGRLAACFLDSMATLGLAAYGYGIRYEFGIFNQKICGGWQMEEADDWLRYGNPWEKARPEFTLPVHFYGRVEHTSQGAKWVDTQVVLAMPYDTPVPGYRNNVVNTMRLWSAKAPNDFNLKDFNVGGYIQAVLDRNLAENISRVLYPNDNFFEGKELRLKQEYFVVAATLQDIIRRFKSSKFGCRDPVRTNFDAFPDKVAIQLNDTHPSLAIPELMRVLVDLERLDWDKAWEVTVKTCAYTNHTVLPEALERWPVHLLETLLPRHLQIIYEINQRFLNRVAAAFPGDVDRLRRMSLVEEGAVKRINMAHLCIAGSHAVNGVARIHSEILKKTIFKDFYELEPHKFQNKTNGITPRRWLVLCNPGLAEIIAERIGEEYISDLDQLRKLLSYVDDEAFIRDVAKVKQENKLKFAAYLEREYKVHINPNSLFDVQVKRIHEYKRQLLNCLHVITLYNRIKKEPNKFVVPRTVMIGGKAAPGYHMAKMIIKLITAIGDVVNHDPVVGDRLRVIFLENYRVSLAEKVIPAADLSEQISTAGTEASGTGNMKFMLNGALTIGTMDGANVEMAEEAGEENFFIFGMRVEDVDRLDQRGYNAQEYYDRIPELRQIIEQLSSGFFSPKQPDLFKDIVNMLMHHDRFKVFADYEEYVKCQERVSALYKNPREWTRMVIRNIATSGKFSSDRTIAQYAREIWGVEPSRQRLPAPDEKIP
Protocol: The new compounds were assayed against rabbit muscle glycogen phosphorylase b enzyme (RMGPb) as described earlier and the results are collected in Table 5. The inefficiency of C-glucopyranosyl 1,2,3-triazoles 5 (entries 4–6) as compared to the micromolar inhibition of the N-glucopyranosyl counterparts II in Table 2 came as a surprise, since the size of the heterocycle and the position of the H-bond donor and acceptor sites of the ring must not have been altered by the interchange of the substituents. A comparison of the inhibitory efficiency of N-benzoyl-β-D-gluco-pyranosylamine Ib (entry 1) with its “reversed” counterpart N-phenyl-2,6-anhydro-D-glycero-D-gulo-heptonamide 20 (shown in entry 3) results in a ratio of 38–67 (~53 as an average).

[2] = target: T1, rabbit muscle glycogen phosphorylase b (RMGPb); details: cited from earlier work

For `OC[C@H]1O[C@@H](c2cn(-c3ccccc3)nn2)[C@H](O)[C@@H](O)[C@@H]1O` [5a, 1-Phenyl-4-(β-D-glucopyranosyl)-1H-1,2,3-triazole], the Inhibition ([1]; RMGPb) was “N.I” and the Ki ([1]; RMGPb, inhibition constants of IIb multiplied by the average factor ~53, read-out: predicted inhibition constant) was 7900 to 8500 µM.
For `OC[C@H]1O[C@@H](n2nnnc2-c2ccccc2)[C@H](O)[C@@H](O)[C@@H]1O` [19a, 5-Phenyl-1-(β-D-glucopyranosyl)-1H-tetrazole], the Inhibition ([1]; RMGPb) was “N.I”.
With `OC[C@H]1O[C@@H](c2nnn(-c3ccccc3)n2)[C@H](O)[C@@H](O)[C@@H]1O` [13a, 2-Phenyl-5-(β-D-glucopyranosyl)-2H-tetrazole] the Inhibition ([1]; RMGPb) was “N.I”.
In the case of `Cc1nc([C@@H]2O[C@H](CO)[C@@H](O)[C@H](O)[C@H]2O)no1` [IVa], the “inhibition at 625 μM (in words)” value ([2]; RMGPb) is given as “No inh. at 625 μM [38]”.
With `OC[C@H]1O[C@@H](n2cnc(-c3ccccc3)c2)[C@H](O)[C@@H](O)[C@@H]1O` [compound 8, 1-(β-D-Glucopyranosyl)-4-phenyl-1H-imidazole] the Inhibition ([1]; RMGPb) was “N.I”, the “inhibition of RMGPb (in words)” value [1] was “non-inhibitory” and the melting point was 273 to 274 °C.
In the case of `OC[C@H]1O[C@@H](c2cn(-c3cccc4ccccc34)nn2)[C@H](O)[C@@H](O)[C@@H]1O` [5c, 1-(Naphthalen-1-yl)-4-(β-D-glucopyranosyl)-1H-1,2,3-triazole], the Inhibition ([1]; RMGPb) is reported as “N.I”.
With `OC[C@H]1O[C@@H](n2nnc(-c3ccccc3)n2)[C@H](O)[C@@H](O)[C@@H]1O` [18a, 5-Phenyl-2-(β-D-glucopyranosyl)-2H-tetrazole] the IC50 ([1]; RMGPb) was 600 µM, the Ki ([1]; RMGPb, calculated from IC50 by the Cheng-Prusoff equation, read-out: calculated Ki) was 327 µM and the “inhibition of RMGPb (in words)” value [1] was “very weak inhibition”.
For `Cc1nnn([C@@H]2O[C@H](CO)[C@@H](O)[C@H](O)[C@H]2O)n1` [18e, 5-Methyl-2-(β-D-glucopyranosyl)-2H-tetrazole], the Inhibition ([1]; RMGPb) was “N.I”.
For `Cn1nnc([C@@H]2O[C@H](CO)[C@@H](O)[C@H](O)[C@H]2O)n1` [13e, 2-Methyl-5-(β-D-glucopyranosyl)-2H-tetrazole], the Inhibition ([1]; RMGPb) was “N.I”.
In the case of `OC[C@H]1O[C@@H](c2noc(-c3ccccc3)n2)[C@H](O)[C@@H](O)[C@@H]1O` [IVb], the “inhibition at 625 μM” value ([2]; RMGPb) is given as 10% at 625 μM [38].
For `Cn1nnnc1[C@@H]1O[C@H](CO)[C@@H](O)[C@H](O)[C@H]1O` [14e, 1-Methyl-5-(β-D-glucopyranosyl)-1H-tetrazole], the Inhibition ([1]; RMGPb) was “N.I”.
For `OC[C@H]1OC(c2nnn[nH]2)[C@H](O)[C@@H](O)[C@@H]1O` (some centres unmarked) [VIII, 5-Glucosyltetrazole], the “inhibition at 625 μM (in words)” value ([2]; RMGPb) is listed as “No inh. at 625 μM [35]” and the “inhibition of RMGPb (in words)” value [2] is listed as “inactive”.
In the case of `Cc1nnc([C@@H]2O[C@H](CO)[C@@H](O)[C@H](O)[C@H]2O)o1` [IIIa], the Ki [2] is listed as 212 µM.
For `O=C(Nc1ccccc1)[C@@H]1O[C@H](CO)[C@@H](O)[C@H](O)[C@H]1O` [compound 20, N-phenyl-2,6-anhydro-D-glycero-D-gulo-heptonamide, reference compound], the “average ratio of inhibitory efficiency of Ib to its reversed counterpart 20” value ([1]; RMGPb, average of the 38–67 ratio) is given as ~ 53, the “ratio of inhibitory efficiency of Ib to its reversed counterpart 20” value ([1]; RMGPb, from literature Ki values of Ib and 20) is given as 38–67 and the Ki ([2]; RMGPb) is given as 5400 µM.
For `OC[C@H]1O[C@@H](c2nnc(-c3ccccc3)o2)[C@H](O)[C@@H](O)[C@@H]1O` [IIIb], the “inhibition at 625 μM” value ([2]; RMGPb) is listed as 10% at 625 μM [37].
In the case of `OC[C@H]1O[C@@H](c2nnc(-c3ccc4ccccc4c3)o2)[C@H](O)[C@@H](O)[C@@H]1O` [IIIc], the “inhibition at 625 μM” value ([2]; RMGPb) is listed as 10% at 625 μM [37].
For `OC[C@H]1O[C@@H](c2cn(-c3ccc4ccccc4c3)nn2)[C@H](O)[C@@H](O)[C@@H]1O` [5b, 1-(Naphthalen-2-yl)-4-(β-D-glucopyranosyl)-1H-1,2,3-triazole], the Inhibition ([1]; RMGPb) was “N.I” and the melting point was 224 to 225 °C.
